Several values for one entry are separate records, joined by “and”; a condition that tells them apart may be missing. Identical values can stand only once.
Legend:
[1] = molecular target: BdGUS (Bifidobacterium dentium GUS) (Bifidobacterium dentium, UniProt D2Q7B1); assay: biochemical; design: GUS activity (hydrolysis rate of MUG) / 1/v: unit not given here
EcGUS = EcGUS (Escherichia coli, UniProt P05804); assay: Isothermal titration calorimetry, EcGUS; assay type: binding; conditions: for entropy contribution to binding: sign (positive = favourable); for Kd / ΔG / ΔH / —TΔS: EcGUS, 298 K
[2] = molecular target: LgGUS (Lactobacillus gasseri GUS) (Lactobacillus gasseri, UniProt Q9AHJ8); assay: GUS inhibition assay, hydrolysis of 4-methylumbelliferyl-β-glucuronide, LgGUS; assay type: biochemical; design: GUS activity (hydrolysis rate of MUG) / 1/v: unit not given here
[3] = [Inhibitor 2] = 7.5 μM, [MUG] 0.75 mM
[4] = [Inhibitor 2] = 7.5 μM, [MUG] 1.5 mM
[5] = [Inhibitor 2] = 7.5 μM, [MUG] 3 mM
[6] = [Inhibitor 2] = 15 μM, [MUG] 0.375 mM
[7] = [Inhibitor 2] = 15 μM, [MUG] 0.75 mM
[8] = [Inhibitor 2] = 15 μM, [MUG] 1.5 mM
[9] = [Inhibitor 2] = 15 μM, [MUG] 3 mM
[10] = [Inhibitor 2] = 30 μM, [MUG] 0.375 mM
[11] = [Inhibitor 2] = 30 μM, [MUG] 0.75 mM
[12] = [Inhibitor 2] = 30 μM, [MUG] 1.5 mM
[13] = [Inhibitor 2] = 30 μM, [MUG] 3 mM
[14] = Tris buffer (250 mM NaCl, 20 mM Tris, pH 8.0)
[15] = phosphate buffer (250 mM NaCl, 20 mM KH2PO4, 100 mM Na2HPO4, pH 8.0)
[16] = [Inhibitor 2] = 10 μM, [MUG] 0.0375 mM
[17] = [Inhibitor 2] = 10 μM, [MUG] 0.075 mM
[18] = [Inhibitor 2] = 10 μM, [MUG] 0.15 mM
[19] = [Inhibitor 2] = 10 μM, [MUG] 0.3 mM
[20] = [Inhibitor 2] = 20 μM, [MUG] 0.0375 mM
[21] = [Inhibitor 2] = 20 μM, [MUG] 0.075 mM
[22] = [Inhibitor 2] = 20 μM, [MUG] 0.15 mM
[23] = [Inhibitor 2] = 20 μM, [MUG] 0.3 mM
[24] = [Inhibitor 2] = 40 μM, [MUG] 0.0375 mM
[25] = [Inhibitor 2] = 40 μM, [MUG] 0.075 mM
[26] = [Inhibitor 2] = 40 μM, [MUG] 0.15 mM
[27] = [Inhibitor 2] = 40 μM, [MUG] 0.3 mM
[28] = [Inhibitor 2] = 80 μM, [MUG] 0.0375 mM
[29] = [Inhibitor 2] = 80 μM, [MUG] 0.075 mM
[30] = [Inhibitor 2] = 80 μM, [MUG] 0.15 mM
[31] = [Inhibitor 2] = 80 μM, [MUG] 0.3 mM

Sequence of LgGUS (Lactobacillus gasseri GUS) (Q9AHJ8 1-598): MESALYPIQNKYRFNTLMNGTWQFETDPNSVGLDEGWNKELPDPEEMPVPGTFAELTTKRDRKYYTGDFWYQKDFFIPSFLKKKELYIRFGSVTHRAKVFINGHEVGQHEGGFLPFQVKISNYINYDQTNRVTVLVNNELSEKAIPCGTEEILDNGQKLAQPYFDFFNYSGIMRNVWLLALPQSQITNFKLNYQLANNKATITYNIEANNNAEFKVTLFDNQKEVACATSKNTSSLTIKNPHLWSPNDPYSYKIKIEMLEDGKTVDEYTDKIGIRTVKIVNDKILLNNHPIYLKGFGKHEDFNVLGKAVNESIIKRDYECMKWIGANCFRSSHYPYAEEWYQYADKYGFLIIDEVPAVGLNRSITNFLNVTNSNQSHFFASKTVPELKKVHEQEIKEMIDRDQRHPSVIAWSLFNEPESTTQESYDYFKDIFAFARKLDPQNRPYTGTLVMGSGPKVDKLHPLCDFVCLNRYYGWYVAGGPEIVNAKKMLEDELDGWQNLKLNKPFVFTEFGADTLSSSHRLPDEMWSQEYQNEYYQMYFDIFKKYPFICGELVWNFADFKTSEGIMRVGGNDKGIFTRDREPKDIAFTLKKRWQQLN
Sequence of EcGUS (P05804 whole entry): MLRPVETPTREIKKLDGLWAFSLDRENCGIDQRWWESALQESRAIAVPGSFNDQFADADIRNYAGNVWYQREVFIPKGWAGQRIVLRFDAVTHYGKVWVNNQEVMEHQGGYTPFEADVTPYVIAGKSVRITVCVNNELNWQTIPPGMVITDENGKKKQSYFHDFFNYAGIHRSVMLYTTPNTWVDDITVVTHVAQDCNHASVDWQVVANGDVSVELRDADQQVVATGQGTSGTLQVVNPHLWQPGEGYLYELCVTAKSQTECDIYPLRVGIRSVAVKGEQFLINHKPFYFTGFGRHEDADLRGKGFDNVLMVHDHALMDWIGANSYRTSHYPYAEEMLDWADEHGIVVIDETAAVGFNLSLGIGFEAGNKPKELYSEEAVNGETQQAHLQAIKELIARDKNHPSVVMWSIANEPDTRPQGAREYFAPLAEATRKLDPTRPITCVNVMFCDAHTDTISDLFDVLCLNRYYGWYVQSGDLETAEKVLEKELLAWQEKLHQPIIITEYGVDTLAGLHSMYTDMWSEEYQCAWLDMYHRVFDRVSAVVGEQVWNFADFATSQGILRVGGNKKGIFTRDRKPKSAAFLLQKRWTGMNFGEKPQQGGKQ
Sequence of BdGUS (Bifidobacterium dentium GUS) (D2Q7B1 1-668): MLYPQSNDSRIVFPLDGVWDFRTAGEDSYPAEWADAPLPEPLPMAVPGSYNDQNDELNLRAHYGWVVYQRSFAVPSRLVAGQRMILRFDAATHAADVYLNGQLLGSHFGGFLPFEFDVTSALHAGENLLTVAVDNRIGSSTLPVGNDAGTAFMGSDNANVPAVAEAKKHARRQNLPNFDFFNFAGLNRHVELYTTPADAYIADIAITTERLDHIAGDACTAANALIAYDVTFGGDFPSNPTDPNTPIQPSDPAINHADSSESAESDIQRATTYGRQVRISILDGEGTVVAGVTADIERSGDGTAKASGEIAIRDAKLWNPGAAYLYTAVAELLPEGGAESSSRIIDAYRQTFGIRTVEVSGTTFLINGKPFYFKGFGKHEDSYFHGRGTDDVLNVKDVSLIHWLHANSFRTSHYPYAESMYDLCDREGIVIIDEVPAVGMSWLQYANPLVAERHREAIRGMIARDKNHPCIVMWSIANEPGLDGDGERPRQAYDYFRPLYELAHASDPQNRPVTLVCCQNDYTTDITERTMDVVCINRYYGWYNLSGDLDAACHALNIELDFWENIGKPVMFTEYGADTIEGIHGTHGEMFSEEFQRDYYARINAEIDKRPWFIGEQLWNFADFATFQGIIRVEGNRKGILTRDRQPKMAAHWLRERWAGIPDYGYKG

In the case of `CCC[C@@H]1NC[C@@H](O)[C@H](O)[C@H]1C(=O)O` [Inhibitor 2, C6-propyl UIFG], the 1/v [1, 3] is reported as 0.6301 and 0.6229 and 0.6281, the “GUS activity (hydrolysis rate of MUG)” value [1, 3] is reported as 0.3544 and 0.3585 and 0.3555 and the 1/v [1, 4] is reported as 0.4203 and 0.4167 and 0.4011. The “GUS activity (hydrolysis rate of MUG)” value [1, 4] was 0.5313 and 0.5358 and 0.5568, the 1/v [1, 5] was 0.3397 and 0.3356 and 0.3208 and the “GUS activity (hydrolysis rate of MUG)” value [1, 5] was 0.6574 and 0.6654 and 0.6962. The 1/v [1, 6] was 1.396 and 1.589 and 1.568, the “GUS activity (hydrolysis rate of MUG)” value [1, 6] was 0.1599 and 0.1405 and 0.1424 and the 1/v [1, 7] was 0.9143 and 0.8906 and 0.8101. The “GUS activity (hydrolysis rate of MUG)” value [1, 7] was 0.2442 and 0.2507 and 0.2757, the 1/v [1, 8] was 0.5734 and 0.5628 and 0.516 and the “GUS activity (hydrolysis rate of MUG)” value [1, 8] was 0.3894 and 0.3968 and 0.4327. The 1/v [1, 9] was 0.4154 and 0.412 and 0.4013, the “GUS activity (hydrolysis rate of MUG)” value [1, 9] was 0.5375 and 0.5419 and 0.5564 and the 1/v [1, 10] was 2.375 and 2.7756 and 2.7044. The “GUS activity (hydrolysis rate of MUG)” value [1, 10] was 0.09401 and 0.08045 and 0.08257, the 1/v [1, 11] was 1.493 and 1.508 and 1.184 and the “GUS activity (hydrolysis rate of MUG)” value [1, 11] was 0.1495 and 0.1481 and 0.1887. The 1/v [1, 12] was 0.8717 and 0.8385 and 0.8277, the “GUS activity (hydrolysis rate of MUG)” value [1, 12] was 0.2562 and 0.2663 and 0.2698 and the 1/v [1, 13] was 0.5634 and 0.5659 and 0.5111. The “GUS activity (hydrolysis rate of MUG)” value [1, 13] was 0.3964 and 0.3946 and 0.4369, the “ΔΔH1–2 (enthalpy penalty of 2 relative to 1)” value (EcGUS; EcGUS in Tris buffer) was “+6.2 kcal mol^−1” and the “–TΔΔS1–2 (2 relative to 1)” value (EcGUS; EcGUS in Tris buffer) was “–5.6 kcal mol^−1”. For the same molecule, the “entropy contribution to binding” value (EcGUS; EcGUS in Tris buffer) was “+7.1 kcal mol^−1”, the “ΔΔH1–2 (enthalpy penalty of 2 relative to 1)” value (EcGUS; EcGUS in phosphate buffer) was “+5.5 kcal mol^−1” and the “–TΔΔS1–2 (2 relative to 1)” value (EcGUS; EcGUS in phosphate buffer) was “–4.6 kcal mol^−1”. For the same molecule, the “entropy contribution to binding” value (EcGUS; EcGUS in phosphate buffer) was “+5.0 kcal mol^−1”, the Kd (EcGUS; [14]) was 0.06 ± 0.0049 µM and the ΔG (EcGUS; [14]) was “–10.01 ± 0.58 kcal/mol”. For the same molecule, the ΔH (EcGUS; [14]) was “–2.90 ± 0.23 kcal/mol”, the “—TΔS” value (EcGUS; [14]) was “–7.11 ± 0.82 kcal/mol” and the Kd (EcGUS; [15]) was 0.28 ± 0.05 µM. The ΔG (EcGUS; [15]) was “–8.96 ± 0.09 kcal/mol”, the ΔH (EcGUS; [15]) was “–3.99 ± 0.06 kcal/mol” and the “—TΔS” value (EcGUS; [15]) was “–4.97 ± 0.15 kcal/mol”. The Ki ([2]; LgGUS, 50 mM sodium acetate pH 4.5, 37 °C) was 18.8 ± 3.92 µM, the 1/v [2, 16] was 0.2959 and 0.2974 and 0.2686 and the “GUS activity (hydrolysis rate of MUG)” value [2, 16] was 4192.53 and 4171.53 and 4614.39. For the same molecule, the 1/v [2, 17] was 0.2107 and 0.1906 and 0.2077, the “GUS activity (hydrolysis rate of MUG)” value [2, 17] was 5869.97 and 6487.03 and 5954.69 and the 1/v [2, 18] was 0.1628 and 0.149 and 0.1679. The “GUS activity (hydrolysis rate of MUG)” value [2, 18] was 7584.59 and 8286.19 and 7358.86, the 1/v [2, 19] was 0.1383 and 0.1264 and 0.1356 and the “GUS activity (hydrolysis rate of MUG)” value [2, 19] was 8920.98 and 9760.49 and 9099.17. For the same molecule, the 1/v [2, 20] was 0.3501 and 0.314 and 0.3449, the “GUS activity (hydrolysis rate of MUG)” value [2, 20] was 3549.69 and 3952.79 and 3602.4 and the 1/v [2, 21] was 0.2306 and 0.2185 and 0.2316. The “GUS activity (hydrolysis rate of MUG)” value [2, 21] was 5367.33 and 5663.13 and 5345.77, the 1/v [2, 22] was 0.1785 and 0.1636 and 0.1746 and the “GUS activity (hydrolysis rate of MUG)” value [2, 22] was 6921.34 and 7548.25 and 7076.25. For the same molecule, the 1/v [2, 23] was 0.1408 and 0.1323 and 0.1394, the “GUS activity (hydrolysis rate of MUG)” value [2, 23] was 8767.09 and 9326.73 and 8851.1 and the 1/v [2, 24] was 0.4229 and 0.3884 and 0.4078. For the same molecule, the “GUS activity (hydrolysis rate of MUG)” value [2, 24] was 2945.2 and 3203.76 and 3052.97, the 1/v [2, 25] was 0.2757 and 0.2635 and 0.2787 and the “GUS activity (hydrolysis rate of MUG)” value [2, 25] was 4496.55 and 4702.63 and 4448.51. For the same molecule, the 1/v [2, 26] was 0.1987 and 0.186 and 0.1977, the “GUS activity (hydrolysis rate of MUG)” value [2, 26] was 6224 and 6644.75 and 6252.92 and the 1/v [2, 27] was 0.1513 and 0.1407 and 0.1527. For the same molecule, the “GUS activity (hydrolysis rate of MUG)” value [2, 27] was 8157.58 and 8770.43 and 8083.43, the 1/v [2, 28] was 0.6318 and 0.5917 and 0.6372 and the “GUS activity (hydrolysis rate of MUG)” value [2, 28] was 1984.8 and 2116.68 and 1968.46. For the same molecule, the 1/v [2, 29] was 0.3742 and 0.3532 and 0.3763, the “GUS activity (hydrolysis rate of MUG)” value [2, 29] was 3323.3 and 3518.37 and 3305.44 and the 1/v [2, 30] was 0.2434 and 0.2308 and 0.2421. For the same molecule, the “GUS activity (hydrolysis rate of MUG)” value [2, 30] was 5087.86 and 5362.93 and 5115.03, the 1/v [2, 31] was 0.1723 and 0.1599 and 0.1688 and the “GUS activity (hydrolysis rate of MUG)” value [2, 31] was 7171.31 and 7724.06 and 7316.31.

From article PMC7933434, “Entropy-driven binding of gut bacterial β-glucuronidase inhibitors ameliorates irinotecan-induced toxicity” (Communications Biology, 2021)
